# Non-standard residues stand in square brackets, D forms with d. hArg = N=C(N)NCCCC[C@H](N)C(=O)O; Cit = NC(=O)NCCC[C@H](N)C(=O)O; Orn = NCCC[C@H](N)C(=O)O
# Test system: murine E^k MHC class II allele
# Test: antigenic peptide prepulse assay, E^k allele (fixed APC prepulsed with PGCC81-104)
# Assay type: cell-based
# Conditions: for Activity in antigenic peptide prepulse assay, E^k (baseline without AE peptide = 1.00): Table 19, prepulse 20 μM PGCC81-104; for Activity in antigenic peptide prepulse assay, E^k (baseline = 1.0): prepulse 1.25 μM antigenic peptide
# Protocol: In a second type of assay, the “peptide prepulse assay”, the antigenic peptide is incubated with paraformaldehyde-fixed APC for 6 h. The APC are washed and incubated for 24 h with the AE101 series homolog and the T cell hybridoma specific for the antigenic peptide. After that incubation, an aliquot of the culture supernatant is transferred to a second culture to measure the relative degree of T hybridoma stimulation, as reflected in the effect of released interleukins on the growth of an interleukin-dependent, indicator cell line, as described above.
# The two above described assays measure different aspects of the molecular mechanism of the AE101 series of peptides. In the “simultaneous assay”, AE101 series peptides are thought to induce the release of endogenously bound peptides and to permit the binding of the second, specific antigenic peptide which is relatively abundant in the culture fluid. The AE101 series peptides enhance antigenic peptide-specific T cell responses in simultaneous assays. In the “peptide prepulse” assay, the specific antigenic peptide becomes bound to MHC class II molecules on the surface of the fixed APC during the 6 h prepulse incubation. The effect of the AE101 series homologs is then thought to release that antigenic peptide, resulting in an apparent suppression of the immune response.
# The AE101 series peptides are thought to contact the MHC class II molecules at a discrete site outside the antigenic peptide-binding groove. AE101 peptide binding to this “Ii-KEY” site is thought to induce a conformational change in the MHC class II molecules accelerating the dissociation of previously bound antigenic peptide. […] The AE101 series peptides thus inhibit antigenic peptide-specific T cell responses in the “peptide prepulse” assays.
# Antigenic peptide-specific T cell activation was measured by the following procedure. Mitomycin C-treated A20 cells (A^dE^d) or CH27 cells APC (A^kE^k) were generated by incubating 5×10^6 cells/mL for 20 min at 37° C. with 0.025 mg/mL of mitomycin C (Sigma) in Dulbecco's Modified Eaglel's Medium (DMEM)/10 mM N-2(hydroxyethylpiperazine-N″[2-ethanesulfonic acid] (HEPES), followed by two washes with four volumes of DMEM-5% fetal calf serum (FCS), 10 mM HEPES. Fixed APC were generated by treating 1×10^6 cells/mL for 5 min with 0.5% paraformaldehyde in PBS (pH 7.2), followed by two washes with four volumes of DMEM-10% FCS, 10 mM HEPES. T cell hybridomas were irradiated 2200 rads before each assay.
# The “peptide prepulse assay” was carried out under essentially the same conditions as described for the “simultaneous assay” with the following modifications. Fixed APC were first incubated for 6 h at 1×10^6 cells/mL in complete DMEM-5% FCS in 24-well microculture plates (1 mL/well) with antigenic peptide, followed by four washes with 10 volumes of DMEM-5% FCS. The cells were then exposed to varying concentrations of AE101 series peptide (64 μM, 16 μM, 4 μM, and 1 μM) for 24 h in the presence of the T cell hybridoma specific to the antigenic peptide. Interleukin release from these cultures was measured by proliferation of HT-2 cells to interleukins in supernatants transferred from the primary culture. Generally, a single dose of 64 μM of each AE101 series peptide was used. The baseline T cell response was measured by culturing T hybridoma cells with the antigenic peptide-prepulsed APC in the absence of AE101 series peptides.
# Table 19: Activities of C-terminal truncation analogs of AE101 in an antigenic peptide prepulse assay. […] Paraformaldehyde-treated APC (fixed APC) expressing MHC class II molecules were incubated with antigenic peptide for 6 h (HEL106-116 for E^d and PGCC81-104 for E^k). After this incubation, the prepulsed APC were washed and cultured with T hybridoma cells and AE101 series peptides. The antigenic peptide concentration during the prepulse was 12 μM for Ed and 20 μM for E^k. The AE101 series peptide concentrations were 64 μM for E^d and 16 μM for E^k. […]
# [1] = Table 25, AE peptide 64 μM, prepulse 2.5 μM antigenic peptide, supernatant 1:10
# [2] = Table 24, AE peptide 64 μM, prepulse 0.625 μM antigenic peptide, supernatant 1:8
# [3] = Table 20, AE peptide 16 μM, prepulse 20 μM antigenic peptide, supernatant 1:2
# [4] = AE peptide 16 μM, supernatant 1:2
# [5] = Table 22, AE peptide 16 μM, prepulse 20 μM antigenic peptide, supernatant 1:2
# [6] = Table 26, AE peptide 64 μM, supernatant 1:8
substance,measurement,setting,value
Ac-LR[Orn]KLPK-NH2 [AE195],"Activity in antigenic peptide prepulse assay, E^k (baseline = 1.00)",[1],0.74
Ac-LR (mL) KYPK-NH2 [AE303],"Activity in antigenic peptide prepulse assay, E^k (baseline = 1.00)",[2],1.00
Ac-LRLKyPK-NH2 [AE308],"Activity in antigenic peptide prepulse assay, E^k (baseline = 1.00)",[2],0.63
Ac-L[Cit]MKNPK-NH2 [AE342],"Activity in antigenic peptide prepulse assay, E^k (baseline = 1.00)",[1],1.10
Ac-Y H MKLPKSAK-NH2 [AE133],"Activity in antigenic peptide prepulse assay, E^k (baseline = 1.00)",[3],0.86
Ac-Y Q MKLPKSAK-NH2 [AE138],"Activity in antigenic peptide prepulse assay, E^k (baseline = 1.00)",[3],0.85
Ac-LRMKLPKPPP-NH2 [AE167],"Activity in antigenic peptide prepulse assay, E^k (baseline without AE peptide = 1.00)",[4],0.01
Ac-YRMKLPK-NH2 [AE113],"Activity in antigenic peptide prepulse assay, E^k (baseline without AE peptide = 1.00)",[4],0.04
Ac-ARNKNPF-NH2 [AE347],"Activity in antigenic peptide prepulse assay, E^k (baseline = 1.00)",[1],1.10
Ac-LRMKLPKPPK-NH2 [AE168],"Activity in antigenic peptide prepulse assay, E^k (baseline without AE peptide = 1.00)",[4],0.01
Ac-L r MKLPK-NH2 [AE161],"Activity in antigenic peptide prepulse assay, E^k (baseline = 1.00)",[5],0.85
Ac-LRNKNPK-NH2 [AE349],"Activity in antigenic peptide prepulse assay, E^k (baseline = 1.00)",[1],0.81
Ac-Y Y MKLPKSAK-NH2 [AE140],"Activity in antigenic peptide prepulse assay, E^k (baseline = 1.00)",[3],0.79
YRMKLPKSAKPVSQMR [AE101],"Activity in antigenic peptide prepulse assay, E^k (baseline = 1.00)",[3],0.89
Ac-LRMKLP F-NH2 (Ac-LRMKLPF-NH2) [AE248],"Activity in antigenic peptide prepulse assay, E^k (baseline = 1.00)",[1],0.98
Ac-YAMKLPKSAK-NH2 [AE121],"Activity in antigenic peptide prepulse assay, E^k (baseline = 1.00)",[3],0.59
Ac-Y[Cit]MKLPKSAK-NH2 [AE131],"Activity in antigenic peptide prepulse assay, E^k (baseline = 1.00)",[3],0.71
same,"Activity in antigenic peptide prepulse assay, E^k (baseline = 1.00)",[1],0.98
Ac-LR (mL) KyPK-NH2 [AE304],"Activity in antigenic peptide prepulse assay, E^k (baseline = 1.00)",[2],0.76
Ac- (mL) RMKLPK-NH2 [AE174],"Activity in antigenic peptide prepulse assay, E^k (baseline = 1)","Table 23, as printed: antigenic peptide prepulse 64 μM, AE peptide 1:8 μM, supernatant 1:2",0.81
same,"Activity in antigenic peptide prepulse assay, E^k (baseline = 1.00)",[2],0.81
Ac-LR HArg KLPK-NH2 [AE197],"Activity in antigenic peptide prepulse assay, E^k (baseline = 1.0)",[6],0.96
Ac-YRMKL hydrP KSAK-NH2 (Ac-YRMKL[hydrP]KSAK-NH2) [AE143],"Activity in antigenic peptide prepulse assay, E^k (baseline = 1.00)","Table 21, AE peptide 16 μM, prepulse 20 μM antigenic peptide, supernatant 1:2",0.10
Ac-LRLKYPk-NH2 [AE307],"Activity in antigenic peptide prepulse assay, E^k (baseline = 1.00)",[2],1.10
Ac-YRM-NH2 [AE118],"Activity in antigenic peptide prepulse assay, E^k (baseline without AE peptide = 1.00)",[4],0.35
Ac-LRMKLP k-NH2 [AE166],"Activity in antigenic peptide prepulse assay, E^k (baseline = 1.00)",[5],0.15
same,"Activity in antigenic peptide prepulse assay, E^k (baseline = 1.00)",[2],0.83
Ac-LR L KLPK-NH2 (Ac-LRLKLPK-NH2; not fully specified; printed as Ac-LR L KLPK-NH2) [AE206],"Activity in antigenic peptide prepulse assay, E^k (baseline = 1.00)",[2],1.00
same,"Activity in antigenic peptide prepulse assay, E^k (baseline = 1.00)",[1],0.68
same,"Activity in antigenic peptide prepulse assay, E^k (baseline = 1.0)",[6],0.96
Ac-LRMK Y PK-NH2 (Ac-LRMKYPK-NH2; not fully specified; printed as Ac-LRMK Y PK-NH2) [AE235],"Activity in antigenic peptide prepulse assay, E^k (baseline = 1.00)",[2],0.80
same,"Activity in antigenic peptide prepulse assay, E^k (baseline = 1.00)",[1],0.76
same,"Activity in antigenic peptide prepulse assay, E^k (baseline = 1.0)",[6],0.60
same,"T cell response relative to baseline without AE peptide (None = 1.0), E^k","Table 27, antigenic peptide prepulse 1.25 μM, AE101 series peptide 64 μM, HT-2 supernatant dilution 1:8",0.83
same,"Activity in antigenic peptide prepulse assay, E^k (baseline = 1.0)","Table 28, AE peptide 64 μM, supernatant 1:4",0.80
Ac-LRMK N PK-NH2 (Ac-LRMKNPK-NH2) [AE232],"Activity in antigenic peptide prepulse assay, E^k (baseline = 1.00)",[1],0.92
Ac-Y N MKLPKSAK-NH2 [AE137],"Activity in antigenic peptide prepulse assay, E^k (baseline = 1.00)",[3],0.72
Ac-LRMK HArg PK-NH2 (Ac-LRMK[hArg]PK-NH2; SMILES CSCC[C@H](NC(=O)[C@H](CCCNC(=N)N)NC(=O)[C@H](CC(C)C)NC(C)=O)C(=O)N[C@@H](CCCCN)C(=O)N[C@@H](CCCCNC(=N)N)C(=O)N1CCC[C@H]1C(=O)N[C@@H](CCCCN)C(N)=O) [AE227],"Activity in antigenic peptide prepulse assay, E^k (baseline = 1.00)",[1],0.87

# Reference: patent US6835382B2, “Ii peptide therapeutics to enhance antigen presentation” (University of Massachusetts, priority 1996, dated 2004)
